“And” between values parts separate entries of the source, which are not always exact repeats. Equal entries are not always repeated. Where two headings read alike, the source gives them in different places. Values belong to the molecule of their own block, whether it stands above or below them.
Legend:
Type in all cases: biochemical
Gox0644 [1] = target: T1, Gox0644 (Gluconobacter oxydans, UniProt Q5FT75); assay: NADPH-dependent α-ketocarbonyl reductase activity assay (rate of decrease of NADPH at 340 nm); details: for Specific Activity (U/mg)*: Table 4, cofactor NADPH, U/mg = µmol/mg·min; for reduction by Gox0644: result in words; for Gox0644 U/mg*: Table 3, 10 mM substrate, 40 mM K-phosphate buffer pH 7.0, 0.05 mM NAD(P)H, 30 °C, U/mg = µmol x min^-1 x mg protein^-1
Method: Reactions were induced by addition of enzyme or substrate. One unit was defined as the amount of enzyme activity catalyzing the conversion of 1 µmol of pyridine nucleotide per min at 30 °C. NMR Analysis of Biotransformation Products: Biotransformations were extracted with equal volumes of CDCl3. and ^13C NMR spectra were recorded on a Bruker Avance 300 DPX spectrometer operating at 300 MHz for ^1H NMR and at 75 MHz for ^13C NMR, respectively.
Reactions were induced by addition of enzyme or substrate. One unit of activity was defined as the amount of enzyme activity catalyzing the conversion of 1 µmol of pyridine nucleotide per min at 30 °C.
The standard reaction mixture (1 ml) for the reduction reactions of substrates contained 10 mM substrate, 40 mM potassium phosphate buffer (K-phosphate buffer) pH 7.0, 0.05 mM NAD(P)H, and the enzyme unless otherwise noted. Reactions were induced by addition of enzyme or substrate. One unit of activity was defined as the amount of enzyme activity catalyzing the conversion of 1 µmol of pyridine nucleotide per min at 30 °C. […] Table 3: Enzymatic activities with α-diketones, α-ketoaldehydes and α-ketoesters

Gox1615 = target: T2, Gox1615 (Gluconobacter oxydans, UniProt Q5FQJ0); assay: as above; details: for Specific Activity (U/mg)*: Table 5, cofactor NADPH, U/mg = µmol/mg·min; for Gox1615 U/mg*: Table 3, 10 mM substrate, 40 mM K-phosphate buffer pH 7.0, 0.05 mM NAD(P)H, 30 °C, U/mg = µmol x min^-1 x mg protein^-1
T2 sequence (Q5FQJ0 1-332): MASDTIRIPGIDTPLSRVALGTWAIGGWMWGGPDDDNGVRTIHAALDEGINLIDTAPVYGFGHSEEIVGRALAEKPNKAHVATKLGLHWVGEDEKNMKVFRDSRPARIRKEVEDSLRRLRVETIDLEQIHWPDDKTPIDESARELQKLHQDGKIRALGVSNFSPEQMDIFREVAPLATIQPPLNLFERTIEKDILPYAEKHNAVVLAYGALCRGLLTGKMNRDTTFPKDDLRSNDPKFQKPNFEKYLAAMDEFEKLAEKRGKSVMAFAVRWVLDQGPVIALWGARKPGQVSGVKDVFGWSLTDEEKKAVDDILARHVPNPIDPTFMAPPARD
Method: Measurement of enzyme activity: NADPH-dependent α-ketocarbonyl reductases were assayed by a routine method used for NAD(P)-linked enzymes by recording the rate of decrease of NADPH at 340 nm (ε = 6.22 mM^-1 x cm^-1)) with substrates at 30 °C. The reaction mixture (1 ml) for reduction of α-ketocarbonyl substrates contained 10 mM substrate, 40 mM potassium phosphate buffer pH 7.0, 0.025 mM NAD(P)H and the enzyme. Reactions were induced by addition of enzyme or substrate. One unit was defined as the amount of enzyme activity catalyzing the conversion of 1 µmol of pyridine nucleotide per min at 30 °C. NMR Analysis of Biotransformation Products: Biotransformations were extracted with equal volumes of CDCl3. and ^13C NMR spectra were recorded on a Bruker Avance 300 DPX spectrometer operating at 300 MHz for ^1H NMR and at 75 MHz for ^13C NMR, respectively. Spectra were processed using Bruker TonSpin 1.3 for Windows software and calibrated to the residual solvent peak of CDCl3 (δH = 7.26 / δC = 77.0).
NADPH-dependent α-ketocarbonyl reductases were assayed by a routine method used for NAD(P)-linked enzymes by recording the rate of decrease of NADPH at 340 nm (ε = 6.22 mM^-1.cm^-1) with substrates at 30 °C. The reaction mixture (1 ml) for reduction of α-ketocarbonyl substrates contained 10 mM substrate, 40 mM potassium phosphate buffer pH 7.0, 0.025 mM NADPH, and the enzyme. Reactions were induced by addition of enzyme or substrate. One unit of activity was defined as the amount of enzyme activity catalyzing the conversion of 1 µmol of pyridine nucleotide per min at 30 °C.
Purified NAD(P)-dependent oxidoreductases were assayed at 30 °C by a routine method used for NAD(P)-linked enzymes by recording the rate of decrease of NAD(P)H at 340 nm (ε = 6.22 mM^-1˙cm^-1) with substrates capable of reduction reactions. The standard reaction mixture (1 ml) for the reduction reactions of substrates contained 10 mM substrate, 40 mM potassium phosphate buffer (K-phosphate buffer) pH 7.0, 0.05 mM NAD(P)H, and the enzyme unless otherwise noted. Reactions were induced by addition of enzyme or substrate. One unit of activity was defined as the amount of enzyme activity catalyzing the conversion of 1 µmol of pyridine nucleotide per min at 30 °C. Measurement of the protein content was performed by the method of Bradford (Bradford M.M., Anal. Biochem. 72:248-254 (1976)). Table 3: Enzymatic activities with α-diketones, α-ketoaldehydes and α-ketoesters

Gox1122 = target: T3, Gox1122 (Gluconobacter oxydans, UniProt Q5FRV6); assay: Aldehyde dehydrogenase activity and kinetic constants
T3 sequence (Q5FRV6 1-463): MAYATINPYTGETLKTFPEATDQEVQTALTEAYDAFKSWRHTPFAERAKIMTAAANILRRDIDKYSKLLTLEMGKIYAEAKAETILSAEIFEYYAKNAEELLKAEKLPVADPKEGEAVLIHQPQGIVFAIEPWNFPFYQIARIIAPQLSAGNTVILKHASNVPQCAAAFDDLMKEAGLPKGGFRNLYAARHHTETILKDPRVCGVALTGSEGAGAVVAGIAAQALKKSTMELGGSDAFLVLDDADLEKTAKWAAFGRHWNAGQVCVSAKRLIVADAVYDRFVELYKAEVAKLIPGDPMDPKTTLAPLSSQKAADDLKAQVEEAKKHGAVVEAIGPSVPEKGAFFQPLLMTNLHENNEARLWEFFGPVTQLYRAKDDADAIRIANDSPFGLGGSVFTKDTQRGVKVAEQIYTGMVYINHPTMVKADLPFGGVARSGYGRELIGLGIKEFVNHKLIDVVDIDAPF
Method: The enzyme is used in a combined enzymatic reaction between the NADPH-dependent reductases (see above) that form α-hydroxy carbonyl compounds.
Determination of pH and temperature optima and enzyme kinetics: The optimum pH for enzyme activities was determined by a modified method of Salusjärvi, T. et al., Appl. Microbiol. Biotechnol. 65:306-314 (2004) using the following buffer system (50 mM final concentration each): sodium acetate pH 4.5 - 6.5, potassium phosphate pH 6.5 - 8.0, Tris-HCl pH 8.0 - 10. Temperature optima for the biocatalysts were determined under standard reaction conditions at temperatures ranging from 20 - 80 °C. The Michaelis constant (Km) for the proteins was determined from purified enzyme by Lineweaver-Burk plots. Assays were performed at optimum pH for each enzyme and at 30 °C using the best substrate and a targeted substrate. The Km for each substrate was calculated using concentrations of 0.0025 to 10 mM, and the Km NAD(P)H and NAD(P) was calculated using concentrations of 0.01 to 0.5 mM
2.9 Kinetic parameters of the keto carbonyl reductases: Kinetic constants were determined from purified enzyme by Lineweaver-Burk plots. The Km and Vmax values for the substrates were calculated using concentrations of 0.025 to 10 mM. […] 8.

Gox0644 [2] = target: T1, Gox0644; assay: Acetaldehyde tolerance test
From the text: The products derived from the α-diketone and α-ketoaldehyde substrate reactions were generated according to the cofactor regeneration protocol. This method overcomes the dependence of the enzymes on reduced cofactor by coupling the substrate reactions of Gox0644 and Gox1615, with the cofactor NADP reduction reaction based on the acetaldehyde oxidoreductase Gox1122 using acetaldehyde. […] In both the reactions with phenylglyoxal and 2,3-pentanedione, Gox0644 activity remained similar to the control reaction consisting of a reaction without acetaldehyde (Tab. 9/10). […] In the reaction with 2,3-pentanedione there was a slight decrease of about 20% from the control, however, the activity levels were still very high at 50.2 U/mg. […] Table 9: Gox0644 acetaldehyde tolerance tests with phenylglyoxal

SMILES: CC(=O)C(C)=O [2,3-butanedione]
Specific Activity (U/mg)* (Gox0644 [1]): 60.0 U/mg
Specific Activity (U/mg)* (Gox1615): 6.0 U/mg

SMILES: O=C(C(=O)c1ccccc1)c1ccccc1 [benzil]
Specific Activity (U/mg)* (Gox0644 [1]): 14.0 U/mg

SMILES: CC=O [acetaldehyde]
Vmax (Gox1122; 40 mM KPB at optimal pH and 30 °C): 196 µmol/min x mg
Km (Gox1122; 40 mM KPB at optimal pH and 30 °C, read-out: Km): 200 µM
apparent Vmax value (Gox1122; fixed 0.5 mM NADP, acetaldehyde as the varied substrate): 196 U/mg protein
Km (Gox1122; several concentrations of the aldehyde from 0.0025 to 10 mM, read-out: Km value): 255 µM
Gox0644 activity (Gox0644 [2]; substrate 2,3-pentanedione, 10mM acetaldehyde, control without acetaldehyde 65.7 U/mg): 67.9 U/mg
Gox0644 activity (Gox0644 [2]; substrate 2,3-pentanedione, 30mM acetaldehyde, control without acetaldehyde 65.7 U/mg): 59.5 U/mg
Gox0644 activity (Gox0644 [2]; substrate 2,3-pentanedione, 50mM acetaldehyde, control without acetaldehyde 65.7 U/mg): 50.2 U/mg and 50.1 U/mg
Gox0644 activity (Gox0644 [2]; substrate phenylglyoxal, 10mM acetaldehyde, control without acetaldehyde 38.5 U/mg): 29.6 U/mg
Gox0644 activity (Gox0644 [2]; substrate phenylglyoxal, 30mM acetaldehyde, control without acetaldehyde 38.5 U/mg): 37.1 U/mg
Gox0644 activity (Gox0644 [2]; substrate phenylglyoxal, 50mM acetaldehyde, control without acetaldehyde 38.5 U/mg): 39.3 U/mg
Gox0644 activity (Gox0644 [2]; substrate phenylglyoxal, 100mM acetaldehyde, control without acetaldehyde 38.5 U/mg): 31.2 U/mg
inhibition at 100000 µM (Gox0644 [2]; substrate phenylglyoxal, 100 mM of acetaldehyde, versus control, read-out: decrease in activity): ≤ 20%

SMILES: CCCC(=O)C(C)=O [2,3-hexanedione]
Gox0644 U/mg* (Gox0644 [1]): 50.1 U/mg
Gox1615 U/mg* (Gox1615): 6.5 U/mg
Specific Activity (U/mg)* (Gox1615): 6.5 U/mg

SMILES: O=CC=O [glyoxal]
Specific Activity (U/mg)* (Gox0644 [1]): 1.1 U/mg
Specific Activity (U/mg)* (Gox1615): 5 U/mg

SMILES: CCC(=O)C(=O)CC [3,4-hexanedione]
Gox0644 U/mg* (Gox0644 [1]): 7.3 U/mg
Gox1615 U/mg* (Gox1615): 2.0 U/mg
Specific Activity (U/mg)* (Gox1615): 2.0 U/mg

SMILES: CC(C)=O [acetone]
reduction by Gox0644 (Gox0644 [1]): not reduced

SMILES: CC(=O)O [acetic acid]
reverse reduction reaction (Gox1122; using NADPH, pH range of 4-10): No reverse reduction reaction

Next, values leading:

Km (Gox1122; cofactor NADP, read-out: apparent Km value): 73 µM
SMILES: NC(=O)c1ccc[n+]([C@@H]2O[C@H](COP(=O)(O)OP(=O)(O)OC[C@H]3O[C@@H](n4cnc5c(N)ncnc54)[C@H](OP(=O)(O)O)[C@@H]3O)[C@@H](O)[C@H]2O)c1 [NADP]

reduction by Gox0644 (Gox0644 [1]): not reduced
SMILES: CCC(=O)C(=O)O [2-oxo butyric acid]

Gox0644 U/mg* (Gox0644 [1]): 92.8 U/mg
activity (Gox0644 [1]; substrates showing the highest activities): 93 U/mg protein
Gox1615 U/mg* (Gox1615): 1.2 U/mg
Specific Activity (U/mg)* (Gox1615): 1.2 U/mg
SMILES: CCOC(=O)C(C)=O [ethyl pyruvate]

reduction by Gox0644 (Gox0644 [1]): reduced
SMILES: O=C(O)C(=O)[C@@H](O)[C@H](O)C(=O)CO [2,5-diketogluconate]

reduction by Gox0644 (Gox0644 [1]): not reduced
SMILES: CC(=O)C(C)O (stereo not shown) [acetoin]

reduction by Gox0644 (Gox0644 [1]): not reduced
SMILES: CC(=O)CC(C)=O [acetylacetone]

Gox0644 U/mg* (Gox0644 [1]): 63.1 U/mg
Gox1615 U/mg* (Gox1615): 4.7 U/mg
Specific Activity (U/mg)* (Gox1615): 4.7 U/mg
SMILES: CC(=O)C(=O)OCCC(C)C [isoamyl pyruvate]

Reference: patent publication EP2316926B1, “Enantioselective production of alpha-hydroxy carbonyl compounds” (priority 2009, dated 2011)
